According to patent publication US9884063B2, “Amido-substituted azole compounds” (Bayer Pharma Aktiengesellschaft, priority 2014, dated 2018):

How the values were obtained:
TNKS2 = molecular target: T1, TNKS2 (Homo sapiens, UniProt Q9H2K2); experiment: Modified TNKS2 Assay 2 (auto-parsylation, [3H]-NAD+ SPA); assay type: biochemical; conditions: 6 nM TNKS2, 96 well
T1 sequence (Q9H2K2 1-1166): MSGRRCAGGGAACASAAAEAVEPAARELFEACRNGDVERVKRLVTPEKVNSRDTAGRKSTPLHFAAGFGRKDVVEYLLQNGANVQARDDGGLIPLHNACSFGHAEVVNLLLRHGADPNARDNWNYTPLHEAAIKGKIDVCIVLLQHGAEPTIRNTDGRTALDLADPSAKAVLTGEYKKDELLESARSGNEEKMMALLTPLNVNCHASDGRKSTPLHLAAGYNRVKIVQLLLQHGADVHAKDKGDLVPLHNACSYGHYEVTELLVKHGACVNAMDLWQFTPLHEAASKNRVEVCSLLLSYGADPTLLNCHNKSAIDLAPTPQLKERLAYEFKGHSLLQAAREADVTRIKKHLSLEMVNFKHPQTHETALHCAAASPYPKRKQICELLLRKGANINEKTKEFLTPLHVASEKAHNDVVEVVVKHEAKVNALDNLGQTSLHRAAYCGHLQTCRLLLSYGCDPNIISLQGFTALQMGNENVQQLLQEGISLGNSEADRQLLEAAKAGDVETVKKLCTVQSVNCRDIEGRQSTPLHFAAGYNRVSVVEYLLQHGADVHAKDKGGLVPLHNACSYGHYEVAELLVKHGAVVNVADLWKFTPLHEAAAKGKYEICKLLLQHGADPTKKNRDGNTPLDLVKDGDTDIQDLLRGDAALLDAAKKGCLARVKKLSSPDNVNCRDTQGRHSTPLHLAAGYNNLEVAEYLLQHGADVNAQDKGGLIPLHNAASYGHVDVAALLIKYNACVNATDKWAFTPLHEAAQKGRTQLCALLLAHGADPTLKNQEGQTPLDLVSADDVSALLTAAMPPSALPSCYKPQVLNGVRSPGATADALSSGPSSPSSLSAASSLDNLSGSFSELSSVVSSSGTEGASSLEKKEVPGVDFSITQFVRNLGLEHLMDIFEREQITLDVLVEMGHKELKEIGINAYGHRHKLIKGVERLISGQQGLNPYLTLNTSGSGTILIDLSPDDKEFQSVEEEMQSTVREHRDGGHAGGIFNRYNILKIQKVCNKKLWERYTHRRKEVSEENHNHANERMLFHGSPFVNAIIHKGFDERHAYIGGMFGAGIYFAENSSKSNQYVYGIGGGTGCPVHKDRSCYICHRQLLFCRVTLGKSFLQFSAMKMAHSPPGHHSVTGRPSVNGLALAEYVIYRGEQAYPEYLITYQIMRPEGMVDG
Experimental: The potency of selected compounds according to the invention was assessed applying an modified in vitro inhibition assay. Here, the TNKS2 catalyzed NAD^+-dependent ribosylation of the enzyme itself (auto-parsylation) was detected using [^3H]-NAD^+ as substrate and applying the scintillation proximity assay (SPA) method to detect tritium-labeled, parsylated TNKS2. The intensity of the readout signal is proportional to the incorporated [^3H]-NAD^+. Inhibition of TNKS2 leads to a decreased incorporation of [^3H]-NAD^+ and consequently to a lower readout signal intensity. The concentration of a test compound which inhibits the enzyme activity by 50% (corresponds to half of the normed readout signal intensity) is reported as IC50.
The assay was conducted in a 96 well MTP format with the identical TNKS2 enzyme sample and NAD^+ sample as in the histone ribosylation assay with the following modifications: TNKS2 enzyme sample was diluted with a modified assay buffer (50 mM MES pH 7.0, 1 mM DTT, 0.01% Triton X-100) to a final concentration of 6 nM TNKS2 and 10×NAD^+ solution was diluted with the modified assay buffer (s. above) to a final 0.445×NAD^+ solution doped with 100 Bq/ul [^3H]-NAD^+ [Catalog #NET443H050UC, Perkin Elmer, Waltham, Mass., USA]. Substrate solution (10 ul) was incubated with different test compound concentrations (2.5 ul in 10% DMSO in modified assay buffer) or control (2.5 ul 10% DMSO in modified assay buffer only) and enzyme (10 ul) over night at room temperature. Incorporated tritium was measured after addition of 50 ul SPA beads (1 mg/ml) [Catalog #RPNQ0095 20 mg/ml, Perkin Elmer, Waltham, Mass., USA; diluted 1:10 with Dulbecco's phosphate buffered saline, PBS Catalog #D8537, Sigma-Aldrich, Steinheim, Germany] and detection of the photon emission with a beta count plate reader [Wallac MicroBeta®, Perkin Elmer, Waltham, Mass., USA].

[1] = test system: HEK293 FOP control reporter cell line; experiment: HEK293 FOP Assay (FOP control vector luciferase reporter); assay type: cell-based; conditions: Homo sapiens; HEK293 FOP control reporter cells, 16 hours, luciferase; dilution series from 50 μM
Experimental: In a parallel approach, HEK293 cells were cotransfected with the FOP control vector and pcDNA3. The FOP vector is identical to the TOP construct, but it contains instead of functional TCF elements a randomized, non-functional sequence. For this transfection a stable transfected cell line was generated as well, based on selection with Geneticin (1 mg/ml).
In preparation of the assay, the two cell lines were plated 24 hrs before beginning the test at 10000 cells per well in a 384 micro titre plate (MTP) in 30 μl growth medium. […] The recombinant human Wnt-3a was thereby applied between 2500 and 5 ng/ml in two-fold dilution steps.
Selective inhibitory activity for small molecules on the wildtype Wnt pathway was determined after parallel incubation of both (TOP and FOP) HEK293 reporter cell lines with a compound dilution series from 50 μM to 15 nM in steps of 3.16-fold dilutions in CAFTY buffer (130 mM sodium chloride, 5 mM potassium chloride, 20 mM HEPES, 1 mM magnesium chloride, 5 mM sodium bicarbonate, pH 7.4) containing 2 mM Ca^2+ and 0.01% BSA.
The compounds were thereby serially prediluted in 100% DMSO and thereafter 50 fold into the CAFTY compound dilution buffer (described above).

[2] = test system: wildtype Wnt signaling cascade; experiment: HEK293 TOP Assay (Super TopFlash luciferase reporter, Wnt-3a stimulated); assay type: cell-based; conditions: Homo sapiens, HEK293, 16 h
Method in brief: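 HEK293 cells stably carrying Super TopFlash (TOP) or FOP reporter, stimulated with recombinant human Wnt-3a (2500–5 ng/ml, two-fold steps). Both lines incubated in parallel with compound from 50 μM to 15 nM (3.16-fold) in CAFTY buffer pH 7.4 with 2 mM Ca2+ and 0.01% BSA; selectivity judged TOP vs FOP.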

TNKS1 = molecular target: T2, TNKS1 (Homo sapiens, UniProt O95271); experiment: Modified TNKS1 Assay 3 (BPS kit #80573, biotin-NAD+, 96 well); assay type: biochemical; conditions: human TNKS1, BPS kit #80573, 96 well
T2 sequence (O95271 1-1327): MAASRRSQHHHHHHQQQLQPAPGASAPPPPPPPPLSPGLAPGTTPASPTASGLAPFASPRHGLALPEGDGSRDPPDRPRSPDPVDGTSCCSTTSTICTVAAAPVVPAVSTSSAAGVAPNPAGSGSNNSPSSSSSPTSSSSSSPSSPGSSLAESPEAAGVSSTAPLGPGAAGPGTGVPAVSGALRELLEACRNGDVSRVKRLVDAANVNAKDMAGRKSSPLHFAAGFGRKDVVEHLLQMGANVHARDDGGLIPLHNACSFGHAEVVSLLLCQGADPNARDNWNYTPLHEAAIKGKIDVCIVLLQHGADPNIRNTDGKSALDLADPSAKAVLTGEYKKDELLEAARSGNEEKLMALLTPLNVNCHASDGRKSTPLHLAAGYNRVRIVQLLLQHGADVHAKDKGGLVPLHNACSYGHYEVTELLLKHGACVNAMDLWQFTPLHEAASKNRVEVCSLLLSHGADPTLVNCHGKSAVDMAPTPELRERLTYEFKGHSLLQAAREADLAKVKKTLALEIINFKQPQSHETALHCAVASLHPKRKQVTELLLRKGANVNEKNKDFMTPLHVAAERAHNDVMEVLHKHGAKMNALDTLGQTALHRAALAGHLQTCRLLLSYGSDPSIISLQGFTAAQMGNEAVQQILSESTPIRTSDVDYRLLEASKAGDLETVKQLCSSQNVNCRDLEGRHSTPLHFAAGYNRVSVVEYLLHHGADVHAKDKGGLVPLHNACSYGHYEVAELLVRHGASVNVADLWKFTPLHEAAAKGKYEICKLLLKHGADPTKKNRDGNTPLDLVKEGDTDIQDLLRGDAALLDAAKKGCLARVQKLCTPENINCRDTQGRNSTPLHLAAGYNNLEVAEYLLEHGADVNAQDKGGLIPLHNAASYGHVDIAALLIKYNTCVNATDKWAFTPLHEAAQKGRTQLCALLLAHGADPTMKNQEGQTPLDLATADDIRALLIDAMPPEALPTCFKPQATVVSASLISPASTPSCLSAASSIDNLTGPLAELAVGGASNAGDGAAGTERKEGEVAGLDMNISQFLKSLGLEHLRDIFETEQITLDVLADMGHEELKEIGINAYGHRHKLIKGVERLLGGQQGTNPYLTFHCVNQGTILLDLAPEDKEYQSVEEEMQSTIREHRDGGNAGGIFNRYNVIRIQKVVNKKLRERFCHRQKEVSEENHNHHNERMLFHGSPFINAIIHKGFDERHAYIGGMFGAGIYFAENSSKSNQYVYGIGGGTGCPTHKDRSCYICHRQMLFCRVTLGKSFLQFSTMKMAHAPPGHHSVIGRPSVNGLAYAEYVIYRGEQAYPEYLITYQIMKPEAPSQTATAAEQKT
Experimental: The potency of the compounds against human TNKS1 according to the invention was assessed using a commercially available biotin/streptavidin binding assay kits from BPS Bioscience, San Diego, USA (Catalog #80573 for TNKS1). The incorporation of a biotin-labeled NAD+ during the […] catalyzed ribosylation of a suitable protein substrate was detected using with a streptavidin-HRP coupled chemi-luminescent readout. The intensity of the readout signal is proportional to the incorporated NAD^+. Inhibition of TNKS1 leads to a decreased incorporation of NAD^+ and consequently to a lower readout signal intensity in the corresponding TNKS1 assays. The concentration of a test compound that inhibits the enzyme activity by 50% (corresponds to half of the normed readout signal intensity) is reported as IC50. The assay was conducted in a 96 well MTP format according to the manufacturer's protocol and using a BMG Pherastar MTP reader [BMG-Labtech, Offenburg, Germany].

[3] = HEK293 TOP reporter cell line, Wnt-3a at EC50, 16 hours incubation, compound dilution series 50 μM to 15 nM

Row | SMILES | IC50 (TNKS2) | IC50 [2, 3] | IC50 ([2]; HEK293 TOP reporter cells, Wnt3a at EC50, 16 hours, luciferase) | IC50 (TNKS1) | IC50 [1]
1 | CNC(=O)c1nc[nH]c1C(=O)Nc1ccc(NC(=O)c2cccnc2Cl)cc1 [Example 2, N^5-(4-{[(2-chloropyridin-3-yl)carbonyl]amino}phenyl)-N^4-methyl-1H-imidazole-4,5-dicarboxamide] | > 10000 nM | 7050 nM | 6100 nM |  | ≥ 50000 nM
2 | CNC(=O)c1nc[nH]c1C(=O)Nc1ccc(NC(=O)c2ccccc2S(C)(=O)=O)cc1 [Example 249, N^4-methyl-N^5-(4-{[2-(methylsulfonyl)benzoyl]amino}phenyl)-1H-imidazole-4,5-dicarboxamide] | 5700 nM | 2400 nM |  |  | 
3 | CCNC(=O)c1nc[nH]c1C(=O)Nc1ccc(NC(=O)c2ccc(OC(F)F)cc2F)cc1 [Example 258, N^5-(4-{[4-(difluoromethoxy)-2-fluorobenzoyl]amino}phenyl)-N^4-ethyl-1H-imidazole-4,5-dicarboxamide] | > 10000 nM | 4500 nM |  |  | 
4 | CCNC(=O)c1nc[nH]c1C(=O)Nc1ccc(NC(=O)c2ccc(OC(F)(F)F)cc2F)cc1 [Example 262, N^4-ethyl-N^5-(4-{[2-fluoro-4-(trifluoromethoxy)benzoyl]amino}phenyl)-1H-imidazole-4,5-dicarboxamide] | > 10000 nM | 8700 nM |  |  | 

Now from value to compound, other results behind:

Row | IC50 (TNKS2) | IC50 [2, 3] | IC50 ([2]; HEK293 TOP reporter cells, Wnt3a at EC50, 16 hours, luciferase) | IC50 (TNKS1) | SMILES | IC50 [1]
5 |  | 70 nM |  | < 0.5 nM | O=C(Nc1ccc(NC(=O)c2[nH]cnc2C(=O)NCCN2CCCCC2)cn1)c1ccccc1Cl [Example 114, N^5-{6-[(2-chlorobenzoyl)amino]pyridin-3-yl}-N^4-[2-(piperidin-1-yl)ethyl]-1H-imidazole-4,5-dicarboxamide] | 
6 |  | 70 nM |  | 5 nM | O=C(Nc1ccc(NC(=O)c2nc[nH]c2C(=O)NCCN2CCC(O)CC2)cc1)c1ccc(F)cc1Cl [Example 212, N^4-{4-[(2-chloro-4-fluorobenzoyl)amino]phenyl}-N^5-[2-(4-hydroxypiperidin-1-yl)ethyl]-1H-imidazole-4,5-dicarboxamide] | 
7 |  | 120 nM |  | 7 nM | COC1CCN(CCNC(=O)c2[nH]cnc2C(=O)Nc2ccc(NC(=O)c3ccc(F)cc3Cl)cc2)C1 (centres unmarked) [Example 265, N^4-{4-[(2-chloro-4-fluorobenzoyl)amino]phenyl}-N^5-[2-(3-methoxypyrrolidin-1-yl)ethyl]-1H-imidazole-4,5-dicarboxamide] | 
8 |  | 120 nM |  | 70 nM | O=C(Nc1ccc(NC(=O)c2nc[nH]c2C(=O)NCCN2CCC[C@@H](O)C2)cc1)c1ccc(F)cc1Cl [Example 272, N^4-{4-[(2-chloro-4-fluorobenzoyl)amino]phenyl}-N^5-{2-[(3R)-3-hydroxypiperidin-1-yl]ethyl}-1H-imidazole-4,5-dicarboxamide] | 
9 | > 10000 nM | 3000 nM |  |  | CNC(=O)c1nc[nH]c1C(=O)Nc1ccc(NC(=O)c2ccccc2F)cc1 [Example 326, N^5-{4-[(2-fluorobenzoyl)amino]phenyl}-N^4-methyl-1H-imidazole-4,5-dicarboxamide] | 
